Measured values from patent US12545637B2, “Extrahepatic targeted cationic lipid compound with high efficiency and low toxicity and its composition” (BEIJING YOUCARE KECHUANG PHARMACEUTICAL TECHNOLOGY CO., LTD., priority 2023, dated 2026).

Key:
[1] = Particle size and polydispersity index (PDI) of lipid nanoparticles by dynamic light scattering; assay type: physicochemical; conditions: for PDI: LNP formulation of the cationic lipid, 25° C.; for Particle size: LNP formulation of the cationic lipid/DSPC/cholesterol/DMG-PEG2000 49:10:39.5:1.5, 25° C.
Description: The particle size and polydispersity index (PDI) were determined by dynamic light scattering using Malvern laser particle size analyzer.
10 μL of the liposome solution was weighed, diluted to 1 mL with RNase-free deionized water, and added to the sample pool. Each sample was measured in triplicate. The measurement conditions were: […] scattering angle, and 25° C.

[2] = Detection of encapsulation efficiency, drug loading concentration and total RNA concentration (RiboGreen); assay type: physicochemical; conditions: LNP formulation prepared from the cationic lipid
Excerpt: Encapsulation efficiency is a key quality attribute of liposomes, which refers to the percentage of drug content encapsulated in the lipid bimolecular layer accounting for the total drug dose and can reflect the degree of drug encapsulation in liposomes. The Chinese Pharmacopoeia stipulates that the encapsulation efficiency should generally not be less than 80%.
The drug loading amount is the ratio of the amount of drug in the liposome to the total amount of drug and carrier in the liposome. The drug loading amount directly affects the clinical application dose of the drug. […] The drug loading concentration is proportional to the drug loading amount, and the relative proportion of the drug loading concentrations can represent the relative proportion of the drug loading amounts. The relative ratio of the total RNA concentrations may represent the relative ratio of the amounts of mRNA carried by the LNP formulations.
1×TE buffer, 0.1% Triton X-100 buffer, RiboGreen reagent (1: 200) and mRNA standard stock solution were prepared.
An appropriate amount of the sample was added to an appropriate amount of 1×TE buffer, and the mixture was diluted to obtain a solution containing approximately […] sample per 1 mL. Then the sample was added to a 96-well plate, and 50 μL of the diluted test sample or the mRNA standard stock solution was added to each well, then 1×TE buffer and 0.1% Triton X-100 buffer were added. The sample was incubated at 37° C. for 10 minutes, and 100 μL RiboGreen reagent (1:200) was added to each well of the test sample in the 96-well plate. The sample was centrifugated, and the data were read using a microplate reader, and processed.

293T cells [3] = assay: Fluorescent detection of Fluc-mRNA (cell transfection efficiency of LNP formulations); assay type: cell-based; conditions: LNP with 0.3 μg Fluc-mRNA, 96-well plate, 24 hours
Description: (§1) Seeding plate: The cells in the culture dish were digested and counted. Cells were spread in a 96-well plate at 10,000 cells per well and in a 12-well plate at 150,000 cells per well. Cells were cultured overnight until the cells adhered to the wall.
The corresponding reagents were added according to the instructions of the Gaussia Luciferase Assay Kit, and the fluorescence expression intensity of each well was detected by an IVIS fluorescence detection system.

293T cells [4] = assay: Cell survival rate assay (CCK-8); assay type: cell-based; conditions: LNP with 1.5 μg Fluc-mRNA, 24 hours, CCK-8
Description: Cell recovery and passage: 293T cells were recovered, cultured in a culture dish, and passaged to the required number of cells.
as §1
An LNP formulation containing 1.5 μg of Fluc-mRNA (prepared according to example 4, the carrier components of the LNP formulation were cationic lipid, neutral lipid, structured lipid and polymer-conjugated lipid at a molar ratio of 49:10:39.5:1.5, wherein the cationic lipid was listed in Table 1) and the formulation of Lipofectamine 3000 were added to the cell culture medium of a 96-well plate, and further cultivated for 24 hours. 10 μL of CCK-8 solution was then added to each well, and the culture plate was incubated in an incubator for 1 hour. The absorbance at 450 nm was measured by a microplate reader.

female BALB/C mice [5] = assay: In vivo imaging in mice of Fluc-mRNA LNP formulations (mRNA expression and duration); conditions: Fluc-mRNA LNP intramuscular; for average radiation intensity, 6 h: 6 h after administration; for average radiation intensity, 24 h: 24 h after administration; for average radiation intensity, 48 h: 48 h after administration; for average radiation intensity, 7 d: 7 d after administration
Description: (§2) The LNP formulation (prepared according to Example 4) containing […] Fluc-mRNA was injected intramuscularly into female BALB/C mice aged 4-6 weeks and weighed 17-19 g, and the mice were intraperitoneally injected with fluorescent imaging substrate at specific time points after administration (6h, 24 h, 48h and 7d), where the mice were allowed to free move for 5 minutes, and then the average radiation intensity (corresponding to fluorescence expression intensity) of the protein expression of the mRNA carried by the LNP in the mice was detected by the IVIS Spectrum small animal in vivo imaging system.

female BALB/C mice [6] = assay: Distribution of liposomes in mice (protein expression in liver, spleen, lung, heart and kidney); assay type: in vivo; conditions: mouse, in vivo
Description: as §2
Current mRNA vaccines usually express proteins in muscle.

Row | Compound | PDI [1] [%] | Particle size [1] [nm] | Drug loading concentration [2] [µg/mL] | Encapsulation efficiency [2] [%] | Total RNA concentration [2] [µg/mL] | Relative light unit (RLU) (293T cells [3]) | Cell survival rate (293T cells [4]) [%] | average radiation intensity, 6 h (female BALB/C mice [5]) | average radiation intensity, 24 h (female BALB/C mice [5]) | average radiation intensity, 48 h (female BALB/C mice [5]) | average radiation intensity, 7 d (female BALB/C mice [5]) | protein expression in the liver (female BALB/C mice [6]) | protein expression in the spleen (female BALB/C mice [6])
1 | CCCCCCCCC(CCCCCC)C(=O)OCCCCCCN(CCCCO)CCCCCCOC(=O)C(CCCCCC)CCCCCCCC (stereo not drawn) [ALC-0315, reference compound] | 18.2 | 205 | 26.88 | 63.3 | 37.86 | 2189470 | 47.21 | 841020 | 189740 | 40125 | 7014 | had protein expression in the liver | 
2 | CCCCCCCCC(CCCCCCCC)OC(=O)CCCCCCCN(CCO)CCCCCCCC(=O)OCCC(CCCCCC)CCCCCC [Compound 21, reference compound] |  |  |  |  |  | 1511024 | 67.84 | 600500 | 111040 | 31540 | 6378 | had protein expression in the liver | 
3 | CCCCCCCCCCCCC(O)CN(C)CCCCCC(=O)OCC(CCCCCC)CCCCCCCC (stereo not drawn) [HHMA, reference compound] | 16.6 | 144 | 32.65 | 60.2 | 36.44 | 2078940 | 64.27 | 661080 | 120010 | 33346 | 5958 | had protein expression in the liver | 
4 | CCCCCCCCCCOC(=O)CCCN(CCO)CCCCCC(=O)OCC(CCCCCCCC)CCCCCCCC [YK-009, reference compound] | 16.0 | 189 | 27.52 | 63.4 | 38.50 | 5146376 | 70.43 | 981240 | 705470 | 100560 | 9555 |  | 
5 | CCCCCCCCCCCOC(=O)CCCN(CCO)CCCN(CCO)CCCCCC(=O)OCC(CCCCCCCC)CCCCCCCC [YK-415, 2-octyldecyl 6-((2-hydroxyethyl)(3-((2-hydroxyethyl)(4-oxo-4-(undecyloxy)butyl)amino)propyl)amino)hexanoate] | 15.6 | 178 | 31.08 | 87.8 | 35.39 | 298021 | 61.16 | 117840 | 64501 | 15790 | 4041 |  | 
6 | CCCCCCCCCCOC(=O)CCCCCN(CCO)CCCN(CCO)CCCCCC(=O)OCCC(CCCCCC)CCCCCC [YK-417] | 17.7 | 128 | 25.02 | 74.8 | 33.46 | 117287 | 21.34 | 60480 | 19987 | 7045 | 2284 |  | 
7 | CCCCCCCCCCOC(=O)CCCN(CCO)CCCN(CCO)CCCCCCOC(=O)CC(CCCCCC)CCCCCC [YK-418, 6-((3-((4-(decyloxy)-4-oxobutyl)(2-hydroxyethyl)amino)propyl)(2-hydroxyethyl)amino)hexyl 3-hexylnonanoate] | 17.2 | 149 | 24.96 | 75.6 | 33.01 | 111251 | 21.05 |  |  |  |  | had no protein expression in the liver | 
8 | CCCCCCCCC(CCCCCCCC)OC(=O)CCCCCN(CCO)CCCN(CCO)CCCCCC(=O)OC(CCCCCCCC)CCCCCCCC [YK-419, di(heptadecan-9-yl) 6,6′-(propane-1,3-diyl-bis((2-hydroxyethyl)azanediyl))dihexanoate] | 11.2 | 169 | 30.40 | 88.3 | 34.44 | 3167322 | 38.92 |  |  |  |  | had no protein expression in the liver | had protein expression in the spleen
9 | CCCCCCCCC(CCCCCCCC)COC(=O)CCCCCN(CCCO)CCCCN(CCCO)CCCCCC(=O)OCC(CCCCCCCC)CCCCCCCC [YK-424, bis(2-octyldecyl) 6,6′-(butane-1,4-diylbis((3-hydroxypropyl)azanediyl))dihexanoate] | 16.1 | 170 | 32.84 | 92.8 | 35.39 | 2883414 | 27.93 |  |  |  |  | had no protein expression in the liver | had protein expression in the spleen
